According to ChEMBL document CHEMBL2424637, “Nucleophilic substitution reactions of 1,4-naphthoquinone and biologic properties of novel S-, S,S-, N-, and N,S-substituted 1,4-naphthoquinone derivatives” (2013):
In brackets after ≈: the same amount, converted by molar mass. Activity calls are given as the source filed them. The calls are words filed in the database; no cut-off is given here.

Legend:
Assay type in all cases: functional
Aspergillus niger [1] = assay: Antifungal activity against Aspergillus niger F-1119 at 0.1% after 48 to 72 hrs by agar disk diffusion technique
Yamadazyma tenuis [2] = assay: Antifungal activity against Candida tenuis VKM Y-70 at 0.1% after 48 to 72 hrs by agar disk diffusion technique
Mycobacterium [3] = assay: Antibacterial activity against Mycobacterium luteum B-917 at 0.1% after 24 hrs by agar disk diffusion technique
Staphylococcus aureus [4] = assay: Antibacterial activity against Staphylococcus aureus 209-P at 0.1% after 24 hrs by agar disk diffusion technique
Escherichia coli [5] = assay: Antibacterial activity against Escherichia coli B-906 at 0.1% after 24 hrs by agar disk diffusion technique
Aspergillus niger [6] = assay: Antifungal activity against Aspergillus niger F-1119 after 24 to 72 hrs by serial dilution technique
Yamadazyma tenuis [7] = assay: Antifungal activity against Candida tenuis VKM Y-70 after 24 to 72 hrs by serial dilution technique
Mycobacterium [8] = assay: Antibacterial activity against Mycobacterium luteum B-917 after 24 to 72 hrs by serial dilution technique
Staphylococcus aureus [9] = assay: Antibacterial activity against Staphylococcus aureus 209-P after 24 to 72 hrs by serial dilution technique
Escherichia coli [10] = assay: Antibacterial activity against Escherichia coli B-906 after 24 to 72 hrs by serial dilution technique
Aspergillus niger [11] = assay: Antifungal activity against Aspergillus niger F-1119 at 0.5% after 48 to 72 hrs by agar disk diffusion technique
Yamadazyma tenuis [12] = assay: Antifungal activity against Candida tenuis VKM Y-70 at 0.5% after 48 to 72 hrs by agar disk diffusion technique
Mycobacterium [13] = assay: Antibacterial activity against Mycobacterium luteum B-917 at 0.5% after 24 hrs by agar disk diffusion technique
Staphylococcus aureus [14] = assay: Antibacterial activity against Staphylococcus aureus 209-P at 0.5% after 24 hrs by agar disk diffusion technique
Escherichia coli [15] = assay: Antibacterial activity against Escherichia coli B-906 at 0.5% after 24 hrs by agar disk diffusion technique

MIC (Aspergillus niger [6])	MIC (Yamadazyma tenuis [7])	MIC (Mycobacterium [8])	MIC (Staphylococcus aureus [9])	MIC (Escherichia coli [10])	Structure (SMILES)	diameter of the inhibition zone (DIZ) (Aspergillus niger [1]) [mm]	diameter of the inhibition zone (DIZ) (Yamadazyma tenuis [2]) [mm]	diameter of the inhibition zone (DIZ) (Mycobacterium [3]) [mm]	diameter of the inhibition zone (DIZ) (Staphylococcus aureus [4]) [mm]	diameter of the inhibition zone (DIZ) (Escherichia coli [5]) [mm]	diameter of the inhibition zone (DIZ) (Aspergillus niger [11]) [mm]	diameter of the inhibition zone (DIZ) (Yamadazyma tenuis [12]) [mm]	diameter of the inhibition zone (DIZ) (Mycobacterium [13]) [mm]	diameter of the inhibition zone (DIZ) (Staphylococcus aureus [14]) [mm]	diameter of the inhibition zone (DIZ) (Escherichia coli [15]) [mm]
500 mg/L (≈ 949 µM)	inactive	500 mg/L (≈ 949 µM)	inactive	inactive	CC1CCC(C(C)(C)SC2=C(SC(C)(C)C3CCC(C)CC3=O)C(=O)c3ccccc3C2=O)C(=O)C1 (stereo not given)	0	0	0	0	0	6	7.4	0	0	0
inactive	125 mg/L (≈ 232 µM)	inactive	inactive	inactive	O=C1C(Sc2c(Cl)c(Cl)c(Cl)c(Cl)c2Cl)=C(N2CCSCC2)C(=O)c2ccccc21	0	0	0	0	0	0	0	0	0	0
125 mg/L (≈ 390 µM)	125 mg/L (≈ 390 µM)	31.2 mg/L (≈ 97.3 µM)	62.5 mg/L (≈ 195 µM)	500 mg/L (≈ 1560 µM)	O=C1C(Cl)=C(N2CCN(CCO)CC2)C(=O)c2ccccc21	0	0	16	11.4	6	0	0	28.7	20.7	8
31.2 mg/L (≈ 78.4 µM)	31.2 mg/L (≈ 78.4 µM)	inactive	inactive	inactive	O=C1C(Cl)=C(N2CCN(c3ccc([N+](=O)[O-])cc3)CC2)C(=O)c2ccccc21	0	8.5	0	0	0	13.7	15.7	0	0	0
inactive	inactive	125 mg/L (≈ 203 µM)	inactive	inactive	O=C1C(Sc2c(Cl)c(Cl)c(Cl)c(Cl)c2Cl)=C(N2CCN(c3ccc(F)cc3)CC2)C(=O)c2ccccc21	0	0	0	0	0	0	0	0	0	0
